molecular target: human P2X3 receptor (Homo sapiens (Human), UniProt P56373); assay: P2X3 receptor inhibition, ATP-evoked Fluo-3 calcium fluorescence (FDSS 3000); type: cell-based; details: C6BU-1 cell transfected with human P2X3 receptor gene; ATP-evoked Fluo-3 fluorescence
Description: Stably expressing cell line (C6BU-1 cell transfected with human P2X3 receptor gene (GenBank accession number Y07683)) was used. The cells were seeded in a 96-well microtiter plate at a concentration of 8000 cells/well and cultured in the medium (8.3% fetal bovine serum, 8.3% horse serum, 1% antibiotic and antifungal in DMEM) for one day at 37° C. under 5% carbon dioxide atmosphere. The medium was replaced with 4 μM Fluo-3-AM solution (pH7.5) containing 20 mM HEPES, 137 mM NaCl, 2.7 mM KCl, 0.9 mM MgCl2, 5.0 mM CaCl2, 5.6 mM D-glucose, 2.5 mM probenecid, 10% BSA, and 0.08% Pluronic F-127, and incubated at 37° C. under 5% dioxide carbon atmosphere for one hour. The plate was washed with washing buffer (20 mM HEPES, 137 mM NaCl, 2.7 mM KCl, 0.9 mM MgCl2, 5.0 mM CaCl2, 5.6 mM D-glucose, 2.5 mM probenecid, pH7.5), and each well was added with 40 μL of this buffer. The plate was placed in High-Throughput Screening System FDSS 3000 (Hamamatsu Photonics K.K.). Measurement of fluorescence intensity by FDSS 3000 was started, and 40 μL of DMSO solutions containing different concentrations of the test compound as prepared by dilution with dilution buffer (20 mM HEPES, 137 mM NaCl, 2.7 mM KCl, 0.9 mM MgCl2, 5.0 mM CaCl2, 5.6 mM D-glucose, 2.5 mM probenecid, 0.1% Pluronic F-127, pH7.5) were dispensed to each well through the built-in automatic dispenser. Five minutes after, 40 nM ATP solution (50 μL) prepared by dilution with the dilution buffer was dispensed through the built-in automatic dispenser, and the measurement of fluorescence intensity was continued for 3 min. For each well, the specific maximum fluorescence intensity was calculated as the ratio of the maximum fluorescence intensity after addition of the ATP solution to the fluorescence intensity at the starting of the measurement. […] FDSS software (Hamamatsu Photonics K.K.) was used for calculation of the specific maximum fluorescence intensity. IC50 was calculated using Microsoft™ Excel™ (Microsoft Corporation) and XLfit™ (ID Business Solutions Ltd.).

Chain of human P2X3 receptor (P56373 whole entry): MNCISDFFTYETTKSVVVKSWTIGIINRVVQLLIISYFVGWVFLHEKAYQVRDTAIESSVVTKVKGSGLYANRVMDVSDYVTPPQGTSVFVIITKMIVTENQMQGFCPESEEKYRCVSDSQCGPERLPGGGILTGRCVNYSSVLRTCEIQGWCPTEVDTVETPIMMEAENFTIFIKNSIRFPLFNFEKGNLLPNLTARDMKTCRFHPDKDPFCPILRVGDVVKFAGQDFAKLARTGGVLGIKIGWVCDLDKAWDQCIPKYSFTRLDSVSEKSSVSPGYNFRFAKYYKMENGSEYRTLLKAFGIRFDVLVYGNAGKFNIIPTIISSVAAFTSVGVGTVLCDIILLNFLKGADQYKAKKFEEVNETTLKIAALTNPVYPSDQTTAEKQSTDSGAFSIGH

| Structure (SMILES) | IC50 [nM] |
| --- | --- |
| COc1ccccc1C1c2c(C(C)(C)COC(C)=O)n[nH]c2C(=O)N1c1ccc(SC)cc1 (stereo not drawn) [II-010] | 134 |
| CCN(C)C(=O)c1ccccc1C1C(C(=O)C(C)C)=C(O)C(=O)N1c1ccc(-c2ccc(C)o2)cc1 (stereo not drawn) [Compound I-495] | 59 |
| CC(C)(C)C(=O)C1=C(O)C(=O)N(c2ccc(-c3cccs3)cc2)C1c1cccc[n+]1[O-] (stereo not drawn) [Compound I-112] | 388 |
| COc1ccccc1C1c2c(C(C)(C)C)n[nH]c2C(=O)N1c1ccc(-c2cccs2)cc1 (stereo not drawn) [II-213] | 11 |
| COc1ccc(CC(=O)C2=C(O)C(=O)N(c3ccc(-c4noc(C)n4)cc3)C2C2CCCCC2)cc1 (stereo not drawn) [Compound I-331] | 722 |
| C[S+]([O-])CCOc1ccccc1C1c2c(C(C)(C)C)n[nH]c2C(=O)N1c1ccc(-c2ccon2)cc1 (stereo not drawn) [II-168] | 101 |
| CC(C)C(=O)C1=C(O)C(=O)N(c2ccc(-c3cccs3)cc2)C1c1ccccc1OCCO (stereo not drawn) [Compound I-223] | 12 |
| CC(C)c1n[nH]c2c1C(c1ccccc1OCC[S+](C)[O-])N(c1ccc(-c3ccsc3)cc1)C2=O (stereo not drawn) [II-080] | 11 |
| COc1ccccc1C1c2c(C(C)(C)C)n[nH]c2C(=O)N1c1ccc(-c2ccsc2)nc1 (stereo not drawn) [II-254] | 2 |
| Cc1noc(-c2ccc(N3C(=O)C(O)=C(C(=O)C(C)C)C3c3ccccc3COC(C)C)cc2)n1 (stereo not drawn) [Compound I-552] | 186 |
| COCc1ccccc1C1C(C(=O)C(C)C)=C(O)C(=O)N1c1ccc(-c2csc(C)n2)cc1 (stereo not drawn) [Compound I-425] | 697 |
| COc1ccccc1C1C(C(=O)CC(C)C)=C(O)C(=O)N1c1ccc(-c2csc(C)c2)cc1 (stereo not drawn) [Compound I-379] | 118 |
| CC(C)CC(=O)C1=C(O)C(=O)N(c2ccc(-c3ccsc3)cc2)C1c1ccccc1OCC(CO)CO (stereo not drawn) [Compound I-498] | 8 |
| COc1ccc(C(=O)C2=C(O)C(=O)N(c3nc4ccc(OC)cc4s3)C2C2CCCCC2)cc1 (stereo not drawn) [Compound I-009] | 14 |
| COCCOc1ncccc1C1C(C(=O)C(C)C)=C(O)C(=O)N1c1ccc(-c2ccc(C)o2)cc1 (stereo not drawn) [Compound I-357] | 20 |
| COc1ncccc1C1c2c(C(C)C)n[nH]c2C(=O)N1c1ccc(-c2ccsc2)cc1 (stereo not drawn) [II-048] | 57 |
| CC(C)(C)c1n[nH]c2c1C(c1ccccc1O)N(c1ccc(-c3ccon3)cc1)C2=O (stereo not drawn) [II-107] | 114 |
| CC(C)(C)c1n[nH]c2c1C(c1ccccc1OCCNS(C)(=O)=O)N(c1ccc(-c3ccsc3)cc1)C2=O (stereo not drawn) [II-171] | 7 |
| COCCOc1ccccc1C1C(C(=O)C(C)(C)C)=C(O)C(=O)N1c1ccc(-c2nc(C)no2)cc1 (stereo not drawn) [Compound I-128] | 155 |
| COCc1ccccc1C1C(C(=O)CC(C)C)=C(O)C(=O)N1c1ccc(-c2csc(C)c2)cc1 (stereo not drawn) [Compound I-376] | 25 |
| COCCOc1ccccc1C1C(C(=O)C(C)C)=C(O)C(=O)N1c1ccc(-c2csc(C)c2)cc1 (stereo not drawn) [Compound I-261] | 19 |

| Structure (SMILES) | IC50 [nM] |
| --- | --- |
| COc1ccccc1C1C(C(=O)C(C)(C)C)=C(O)C(=O)N1c1ccc(-c2cscc2C)cc1 (stereo not drawn) [Compound I-193] | 994 |
| COC(=O)C(C)(C)CC(=O)C1=C(O)C(=O)N(c2ccc(-c3ccsc3)cc2)C1c1ccccc1OC (stereo not drawn) [Compound I-556] | 32 |
| COCc1ccccc1[C@@H]1C(C(=O)C(C)C)=C(O)C(=O)N1c1ccc(-c2ccsc2)cc1 [Compound I-255] | 8 |
| COCOc1ccccc1C1C(C(=O)CC(C)C)=C(O)C(=O)N1c1ccc(-c2ccc(C)s2)cc1 (stereo not drawn) [Compound I-305] | 20 |
| CC(C)CC(=O)C1=C(O)C(=O)N(c2ccc(-c3ccon3)cc2)C1c1ccccc1OCCO (stereo not drawn) [Compound I-323] | 310 |
| COCCOc1ccccc1C1c2c(C(C)(C)C)n[nH]c2C(=O)N1c1ccc(SC)cc1 (stereo not drawn) [II-026] | 23 |
| COc1ccccc1C1c2c(C(C)(C)C)n[nH]c2C(=O)N1c1ccc(-c2ccsc2)cc1 (stereo not drawn) [II-204] | 17 |
| CNC(=O)COc1ccccc1C1c2c(C(C)C)n[nH]c2C(=O)N1c1ccc(-c2ccsc2)cc1 (stereo not drawn) [II-049] | 11 |
| CCOc1ccccc1C1c2c(C(C)(C)C)n[nH]c2C(=O)N1c1ccc(-c2ccon2)cc1 (stereo not drawn) [II-101] | 27 |
| CC(C)(C)C(=O)C1=C(O)C(=O)N(c2ccc(-c3ccsc3)cc2)C1c1cccc[n+]1[O-] (stereo not drawn) [Compound I-104] | 424 |
| COCCOc1ncccc1C1C(C(=O)C(C)C)=C(O)C(=O)N1c1ccc(-c2ccsc2)cc1 (stereo not drawn) [Compound I-169] | 19 |
| COc1ccc(C(=O)C2=C(O)C(=O)N(c3ccc(-c4ccoc4)cc3)C2C2CCCCC2)cc1 (stereo not drawn) [Compound I-039] | 12 |
| Cc1ccc(-c2ccc(N3C(=O)C(O)=C(C(=O)C(C)C)C3c3ccccc3C(=O)N(C)C)cc2)o1 (stereo not drawn) [Compound I-397] | 122 |
| COc1ccccc1C1C(C(=O)C(C)(C)C)=C(O)C(=O)N1c1ccc(-c2ccco2)cc1 (stereo not drawn) [Compound I-092] | 92 |
| COc1ncccc1C1c2c(C(C)(C)CO)n[nH]c2C(=O)N1c1ccc(-c2ccsc2)cc1 (stereo not drawn) [II-109] | 21 |
| COCCOc1ccccc1C1C(C(=O)CC(C)C)=C(O)C(=O)N1c1ccc(-c2ccc(C)s2)cc1 (stereo not drawn) [Compound I-304] | 21 |
| CSc1ccccc1C1C(C(=O)C(C)(C)C)=C(O)C(=O)N1c1ccc(-c2ccon2)cc1 (stereo not drawn) [Compound I-057] | 159 |
| Cc1cc(-c2ccc(N3C(=O)C(O)=C(C(=O)CC(C)C)C3c3ccccc3OCCO)cc2)on1 (stereo not drawn) [Compound I-345] | 999 |
| CCOCOc1ccccc1C1C(C(=O)C(C)C)=C(O)C(=O)N1c1ccc(-c2noc(C)n2)cc1 (stereo not drawn) [Compound I-542] | 58 |
| CCOc1ncccc1C1C(C(=O)C2CCCC2)=C(O)C(=O)N1c1ccc(-c2ccsc2)cc1 (stereo not drawn) [Compound I-515] | 37 |
| COc1ccccc1C1C(C(=O)CC(C)C)=C(O)C(=O)N1c1ccc(-c2cc(C)no2)cc1 (stereo not drawn) [Compound I-339] | 892 |

| Structure (SMILES) | IC50 [nM] |
| --- | --- |
| Cc1nc(-c2ccc(N3C(=O)C(O)=C(C(=O)C(C)C)C3c3ccccc3OC(F)(F)F)cc2)no1 (stereo not drawn) [Compound I-314] | 329 |
| COc1ccccc1C1C(C(=O)C(C)C)=C(O)C(=O)N1c1ccc(-c2ccco2)cc1 (stereo not drawn) [Compound I-224] | 73 |
| Cc1ccc(-c2ccc(N3C(=O)C(O)=C(C(=O)C(C)C)C3c3ccccc3OC(F)F)cc2)o1 (stereo not drawn) [Compound I-358] | 25 |
| COCc1ccccc1C1C(C(=O)CC(C)C)=C(O)C(=O)N1c1ccc(SC(F)(F)F)cc1 (stereo not drawn) [Compound I-448] | 246 |
| COc1ccccc1C1c2c(CC(C)(C)C)n[nH]c2C(=O)N1c1ccc(-c2ccon2)cc1 (stereo not drawn) [II-073] | 105 |
| Cc1ccc(-c2ccc(N3C(=O)C(O)=C(C(=O)C(C)C)C3c3ccccc3S(C)(=O)=O)cc2)o1 (stereo not drawn) [Compound I-548] | 77 |
| COC(=O)COc1ccccc1C1C(C(=O)C(C)(C)C)=C(O)C(=O)N1c1ccc(-c2ccon2)cc1 (stereo not drawn) [Compound I-133] | 367 |
| COCc1ccccc1C1C(C(=O)CC(C)C)=C(O)C(=O)N1c1ccc(-c2noc(C)n2)cc1 (stereo not drawn) [Compound I-315] | 252 |
| COCCOc1cc(F)ccc1C1C(C(=O)C(C)C)=C(O)C(=O)N1c1ccc(-c2noc(C)n2)cc1 (stereo not drawn) [Compound I-369] | 91 |
| COc1ncccc1C1c2c(C(C)(C)C)n[nH]c2C(=O)N1c1ccc(-c2nccs2)cc1 (stereo not drawn) [II-193] | 195 |
| COc1ccccc1C1C(C(=O)C(C)(C)C)=C(O)C(=O)N1c1ccc(-c2ccsc2Cl)cc1 (stereo not drawn) [Compound I-192] | 612 |
| CC(=O)Nc1ccccc1C1c2c(C(C)C)n[nH]c2C(=O)N1c1ccc(-c2ccsc2)cc1 (stereo not drawn) [II-085] | 23 |
| COCCOc1ncccc1[C@@H]1C(C(=O)C(C)C)=C(O)C(=O)N1c1ccc(-c2ccsc2)cc1 [Compound I-395] | 6 |
| COc1ccc(C(=O)C2=C(O)C(=O)N(c3ccc(-c4ccon4)cc3)C2c2ccc(Br)cc2OC)cc1 (stereo not drawn) [Compound I-131] | 251 |
| COc1ccc(-c2n[nH]c3c2C(c2ccccc2OC)N(CCCc2ccco2)C3=O)cc1 (stereo not drawn) [II-231] | 344 |
| COCCOc1ccccc1C1C(C(=O)C(C)C)=C(O)C(=O)N1c1ccc(-c2nc(C)no2)cc1 (stereo not drawn) [Compound I-271] | 542 |
| COc1ccccc1C1c2c(C(C)(C)CO)n[nH]c2C(=O)N1c1ccc(-c2ccsc2)cn1 (stereo not drawn) [II-251] | 8 |
| CC(C)CC(=O)C1=C(O)C(=O)N(c2ccc(-c3ccsc3)cc2)C1c1ccccc1N1CCOCC1 (stereo not drawn) [Compound I-442] | 5 |
| COc1ncccc1C1c2c(C(C)(C)C)n[nH]c2C(=O)N1c1ccc(SC)cc1 (stereo not drawn) [II-007] | 62 |
| CC(C)Oc1ccccc1C1C(C(=O)C(C)(C)C)=C(O)C(=O)N1c1ccc(-c2ccon2)cc1 (stereo not drawn) [Compound I-105] | 97 |
| COCCOc1ncccc1C1c2c(C(C)(C)C)n[nH]c2C(=O)N1c1ccc(-c2ccco2)cc1 (stereo not drawn) [II-037] | 8 |

— patent US8575197B2, “Pyrolinone derivative and pharmaceutical composition comprising the same” (Shionogi & Co., Ltd., priority 2008, dated 2013)
